Source: publication PMC7413516, “Antidepressant-like activity and safety profile evaluation of 1H-imidazo[2,1-f]purine-2,4(3H,8H)-dione derivatives as 5-HT1A receptor partial agonists” (PLoS ONE, 2020)
Read-outs that look alike come from different tables or passages of the source.

Assay: Pharmacokinetic study in mice, plasma and brain structures, LC/MS/MS
Format: in vivo, Swiss albino mice
Details: Swiss albino, mouse, ip, 0.625 mg/kg i.p.
Procedure: Blood samples from the Swiss albino mice were collected at 0 (pre-dose), 5, 15, 30, 60, 120, 240 and 480 min after a compound administration. The blood samples and brain structures were collected under general anesthesia induced by i.p. injection of 50 mg/kg ketamine plus 8 mg/kg xylazine. The blood samples were taken into heparinized tubes, immediately centrifuged at 1000 × g for 10 min, and plasma was collected. The plasma samples and brain structures were immediately frozen at -30°C and -80°C, respectively.
The plasma and tissue sample pretreatment procedure involved acetonitrile precipitation. A 5 μL aliquot of the IS working solution (100 ng/mL) was added to 50 μL of the collected mouse plasma sample, which was then vortex-mixed for 10 seconds. Thereafter, 200 μL of acetonitrile was added, vortexed during 20 min, and then centrifuged (1000 × g, 10 min). The supernatant (100 μL) was then transferred to insert placed in an autosampler vial, and a 10 μL volume of this was injected onto the HPLC column. Tissue samples were thawed before use, and whole hippocampus, striatum and frontal cortex were weighted and placed in a glass mortar and pestle tissue grinder and homogenized with an appropriate amount of phosphate buffer (pH 7.4) in 1:5 ratio. Afterward, 50 μL of tissue homogenates were transferred to new Eppendorf tubes and spiked with 5 μL of the internal standard working solution. All samples were stored on ice during the preparation process. This was followed by procedures like those described above.
The LC/ESI-MS/MS experiments were performed on an Applied Biosystems/MDS Sciex (Concord, Ontario, Canada) API 2000 triple quadrupole mass spectrometer equipped with an electrospray (ESI) ionization interface. This instrument was coupled to an Agilent 1100 (Agilent Technologies, Waldbronn, Germany) LC system. Data acquisition and processing were accomplished using Sciex Analyst 1.4.2 data collection and integration software.
An XBridge C18 (2.1 x 30 mm, 3.5 μm) analytical column (Waters, Milford, Massachusetts, USA) was used for compound separation. The temperatures of the column thermostat and the autosampler were set at 25°C and 10°C, respectively. The mobile phase consisted of a mixture of acetonitrile with addition of 0.1% formic acid (solvent A) and water with addition of 0.1% formic acid (solvent B) and was set at a flow rate of 0.6 mL/min. Starting amount of solvent A is 10%, isocratic elution from 0 to 3 min, and then gradient up to 90% of solvent A, and maintained to 10 min, and then gradient down to 10% of solvent A, and maintained to 15 min.
The ion source parameters were as follows: ion spray voltage: 5500 V; nebulizer gas (gas 1): 20 psi; turbo gas (gas 2): 25 psi; temperature of the heated nebulizer: 400°C; curtain gas: 40 psi; collision gas: 6 psi. Mass spectra were acquired by SRM with precursor/predominant product ion transitions for each analyte. The mass spectral Q1→Q3 transitions monitored for AZ-853, AZ-861 and for IS (nebivolol), were m/z 453.9→235.1; 504.3→285.1 and 406.2→151.1, respectively. The peak widths of precursor and product ions were set to 0.7 full width half-height. Quantification was done via peak area ratio.
Pharmacokinetic parameters were calculated by a non-compartmental approach from the average concentration values, using Phoenix WinNonlin software (Certara, Princeton, NJ 08540 USA). First order elimination rate constant (λz) was calculated by linear regression of time versus log concentration. Next, the area under the mean serum and tissue concentration versus time curve (AUC0→t) was estimated using the log-linear trapezoidal rule (1), where Ci is the plasma concentration measured at t1.
AUC0→t=∑i=1n((Ci+Ci+1)/2)∙(ti+1−ti). (1)
Area under the first-moment curve (AUMC0→t) was estimated by calculation of the total area under the first-moment curve using the Eq (2), where Ci is the plasma concentration measured at t1. AUMC0→t=∑i=1n((ti∙Ci+ti+1∙Ci+1)/2)∙(ti+1−ti). […]

[1] = hippocampus, 0.625 mg/kg, read-out: Concentration, hippocampus (individual animals)
[2] = hippocampus, 0.625 mg/kg, read-out: Concentration, hippocampus (Mean)
[3] = plasma, 0.625 mg/kg, read-out: Concentration, plasma (Mean)
[4] = plasma, 0.625 mg/kg, read-out: Concentration, plasma (individual animals)
[5] = striatum, 0.625 mg/kg, read-out: Concentration, striatum (Mean)
[6] = striatum, 0.625 mg/kg, read-out: Concentration, striatum (individual animals)

concentration at 5 min [1]: 205 ng/mL
concentration at 15 min [2]: 271 ng/mL
concentration at 15 min [1]: 228 ng/mL
concentration at 30 min [2]: 125 ng/mL
concentration at 30 min [1]: 125 ng/mL
concentration at 60 min [2]: 44.3 ng/mL
concentration at 60 min [1]: 38.9 ng/mL
concentration at 120 min [2]: 12.6 ng/mL
concentration at 120 min [1]: 14.1 ng/mL
concentration at 240 min [2]: 8.83 ng/mL
concentration at 240 min [1]: 9.85 ng/mL
concentration at 480 min [2]: 2.07 ng/mL
Cmax (hippocampus, 0.625 mg/kg, read-out: Cmax, hippocampus): 272 ng/g
Tmax (hippocampus, 0.625 mg/kg, read-out: tmax, hippocampus (converted)): 15 min
CL/F (plasma): 570 mL/min/kg
AUC(0-t) (plasma, read-out: AUC0→t, plasma (converted)): 17.7 ng·h/mL
MRT (plasma, read-out: MRT, plasma (converted)): 85.8 min
concentration at 5 min [3]: 23.1 ng/mL
concentration at 5 min [4]: 25.4 ng/mL
concentration at 15 min [3]: 13.4 ng/mL
concentration at 15 min [4]: 12.2 ng/mL
concentration at 30 min [3]: 7.76 ng/mL
concentration at 30 min [4]: 9.11 ng/mL
concentration at 60 min [3]: 1.78 ng/mL
concentration at 120 min [3]: 4.08 ng/mL
concentration at 120 min [4]: 3.22 ng/mL
concentration at 240 min [3]: 0.38 ng/mL
concentration at 480 min [3]: 0.29 ng/mL
concentration at 480 min [4]: 0.25 ng/mL
Vd/F (plasma, 0.625 mg/kg, plasma, read-out: Vd/F): > 67 L/kg
Cmax (plasma, 0.625 mg/kg, read-out: Cmax, plasma): 23.1 ± 16 ng/mL
Tmax (plasma, 0.625 mg/kg, read-out: tmax, plasma): ≤ 5 min
Kp (striatum, ratio of AUC values, read-out: Brain structure-to-plasma concentration ratio, striatum (S/P)): 19.9
AUC(0-t) (striatum, read-out: AUC0→t, striatum (converted)): 352 ng·h/mL
MRT (striatum, read-out: MRT, striatum (converted)): 56.3 min
concentration at 5 min [5]: 337 ng/mL
concentration at 5 min [6]: 290 ng/mL
concentration at 15 min [5]: 404 ng/mL
concentration at 15 min [6]: 398 ng/mL
concentration at 30 min [5]: 262 ng/mL
concentration at 30 min [6]: 307 ng/mL
concentration at 60 min [5]: 65.5 ng/mL
concentration at 60 min [6]: 78.3 ng/mL
concentration at 120 min [5]: 40.9 ng/mL
concentration at 120 min [6]: 48.7 ng/mL
concentration at 240 min [5]: 5.58 ng/mL
concentration at 480 min [5]: 1.4 ng/mL
Cmax (striatum, 0.625 mg/kg, read-out: Cmax, striatum): 404 ng/g
Tmax (striatum, 0.625 mg/kg, read-out: tmax, striatum (converted)): 15 min
SMILES: Cn1c(=O)c2c(nc3n(CCCCN4CCN(c5ccccc5F)CC4)ccn23)n(C)c1=O [AZ-853, 8-(4-(4-(2-fluorophenyl)piperazin-1-yl)butyl)-1,3-dimethyl-1H-imidazo[2,1-f]purine-2,4(3H,8H)-dione]
